In article PMC11783601, “Analogue-Sensitive Inhibition of Histone Demethylases Uncovers Member-Specific Function in Ribosomal Protein Synthesis” (Journal of the American Chemical Society, 2025):

T1: wild type KDM4A (Homo sapiens, UniProt O75164)
T1 construct: human KDM4A-jmjC domain (catalytic domain of KDM4A); 6xHis (N); host or cells: E. coli BL21 (DE3)
T1 sequence (O75164 142-308 limits assumed): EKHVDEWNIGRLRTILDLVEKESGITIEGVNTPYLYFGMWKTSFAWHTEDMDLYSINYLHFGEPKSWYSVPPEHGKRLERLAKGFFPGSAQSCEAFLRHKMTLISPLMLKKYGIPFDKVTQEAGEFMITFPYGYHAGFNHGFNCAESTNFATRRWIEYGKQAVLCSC

T2: KDM4A-F185A (Homo sapiens, UniProt O75164, F185A)
T2 construct: human KDM4A-jmjC domain (catalytic domain of KDM4A); 6xHis (N); host or cells: E. coli BL21 (DE3)
T2 sequence (O75164 142-308 F185A limits assumed): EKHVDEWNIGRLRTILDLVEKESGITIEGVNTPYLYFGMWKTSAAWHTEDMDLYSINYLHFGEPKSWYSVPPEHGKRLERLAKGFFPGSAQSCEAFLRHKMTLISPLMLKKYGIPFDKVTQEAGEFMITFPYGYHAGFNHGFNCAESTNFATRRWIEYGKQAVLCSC


Columns and labels:
wild type KDM4A [1] = molecular target: T1, wild type KDM4A; experiment: Coupled fluorescence (FDH/NADH) assay, kinetic parameters with 2OG; format: biochemical; settings: H3K9me3 demethylation, saturating peptide, 2OG as cofactor
wild type KDM4A [2] = molecular target: T1, wild type KDM4A; experiment: MALDI-MS end-point demethylase assay on H3K9me3 peptide; format: biochemical; settings: H3K9me3 peptide, 200 µM 2OG, fixed concentration of NOG analogue
Excerpt: (§1) To develop an appropriate inhibitor, we selected N-oxalyl glycine (NOG, 2) scaffold because of its structural similarity with 2OG and the ability to inhibit 2OG-utilizing enzymes including KDMs (Figure 1C).[29]−[31] Substituting −CH2– at C3 of 2OG with −NH– in NOG prevents its oxidative decarboxylation by KDMs, making the inhibitor cofactor-competitive. […] We synthesized a panel of eight NOG analogues (3–10), derived from L-amino acids, carrying varied steric substituents at C4, with the reasoning that a bulky substituent at C4 would selectively fit into the expanded pocket of F185A over wild type KDM4A (Figures 2B and S1–S6, Schemes S1 and S2). The inhibitory effect of each compound was determined based on the extent of enzyme-catalyzed demethylation of a canonical peptide substrate corresponding to the N-terminus of histone 3 carrying trimethylated lysine at position 9 (H3K9me3). […] Such orthogonal inhibition of the engineered demethylase constitutes a powerful chemical probe to study the functions of a specific member of an enzyme family without issues of off-target activity.
(§2) assay (Biorad) kit with BSA concentrations as a standard. […]
8. […]
2 mM L-ascorbic acid with a total assay volume of 10 µL. Fe(II) supplement and L-ascorbic acid
Lastly, the 2OG and peptide were
positive mode and analyzed on Bruker FlexAnalysis software. The percent demethylated peptide
(§3) the multiple demethylation events on the peptide. […]

KDM4A-F185A = molecular target: T2, KDM4A-F185A; experiment: as above; format: biochemical
Excerpt: as §1, with “activity. […]” for “activity.”
as §2
8. Demethylase activity of the wild type and mutant KDM4 proteins on peptide substrate To monitor enzymatic activity, a demethylase activity assay was optimized and then observed through MALDI-TOF.7 Each histone demethylase assay sample included either wild type or mutant enzyme (10µM KDM4A, 7.5µM KDM4C, 10µM KDM4D, or 1µM KDM4E), 10 µM peptide, 200 µM 2OG, 50 mM Tris pH 8, […], 0-200µM NOG analogue, and 2 mM L-ascorbic acid with a total assay volume of 10 µL. Fe(II) supplement and L-ascorbic acid […]
Lastly, the 2OG and peptide were […]
positive mode and analyzed on Bruker FlexAnalysis software. The percent demethylated peptide […]
as §3
varying concentrations (0-10 µM). […] The fluorescence intensity was measured with excitation = 340 nm and emission = 490 nm on a TECAN Infinite M1000Pro. […]
The set up and analysis for IC50 of L-Leu NOG against KDM4A F185A enzyme was similar to that described in the coupled fluorescence assay section, but adjusted to function as an end point assay. […]
and varying concentration of compounds (NOGs 6, 9 and 10) and a substrate cocktail (200 µM 2OG and 60 µM H3K9me3 peptide). Different concentrations of NOG 6 were measured at one time point ranging for 1-5 hours. For 9 and 10, the same set-up remained, but enzymatic activity was measured via MALDI-TOF analysis, and relative activity and inhibition was calculated for different NOG concentrations as described above. […]
and analyzed on Bruker FlexAnalysis software. The percent demethylated peptide was calculated by first multiplying the K27me1 peak by 2 and the K27me0 peak by 3 to account for the multiple

[3] = substrate: O=C(O)CCC(=O)C(=O)O; experiment: purified protein, by the assay type; settings: other: saturating H3K9me3 peptide; pH 8.0; 37.0 °C

Molecule | IC50 (KDM4A-F185A) [µM] | Km [3] [µM] | further results
O=C(O)CCC(=O)C(=O)O [compound 1, 2-oxoglutarate] | – | – | kcat (wild type KDM4A [1]; listed as 2OG): 0.26 ± 0.01 min^–1; kcat (wild type KDM4A [1]; listed as 2OG 1): 0.2562±0.0072 min^–1
O=C(O)CNC(=O)C(=O)O [compound 2, N-oxalyl glycine, reference compound] | – | – | inhibition of wild type KDM4A demethylase activity (MALDI-MS) (wild type KDM4A [2]): weakly inhibited; inhibition of F185A mutant demethylase activity (MALDI-MS) (KDM4A-F185A; H3K9me3 peptide, 200 µM 2OG, fixed concentration of NOG analogue): weakly inhibited
O=C(O)C(=O)N[C@@H](Cc1ccccc1)C(=O)O [compound 9, phenylalanine NOG] | 28.7 ± 1.3 | – | –
O=C(O)C(=O)N[C@@H](CC1CCCCC1)C(=O)O [compound 10, cyclohexyl NOG] | 4.7 ± 1.7 | – | –
wild type KDM4A (Homo sapiens) (protein) EKHVDEWNIGRLRTILDLVEKESGITIEGVNTPYLYFGMWKTSFAWHTEDMDLYSINYLHFGEPKSWYSVPPEHGKRLERLAKGFFPGSAQSCEAFLRHKMTLISPLMLKKYGIPFDKVTQEAGEFMITFPYGYHAGFNHGFNCAESTNFATRRWIEYGKQAVLCSC | – | 7.52 ± 1.2 | –
KDM4A-F185A (Homo sapiens; F185A) (protein) EKHVDEWNIGRLRTILDLVEKESGITIEGVNTPYLYFGMWKTSAAWHTEDMDLYSINYLHFGEPKSWYSVPPEHGKRLERLAKGFFPGSAQSCEAFLRHKMTLISPLMLKKYGIPFDKVTQEAGEFMITFPYGYHAGFNHGFNCAESTNFATRRWIEYGKQAVLCSC | – | 52 ± 11 | –
